How the values were obtained:
[1] = system: human vessel endothelial cells (human umbilical cord vein HUV-EC-C); experiment: MTT assay of human vessel endothelial cells cultured with selenium compounds; type: cell-based
Experimental: In order to clarify the intracellular function of the selenium-containing compound (chemical formula 4: oxidized dimer) according to one embodiment of the invention, the selenium-containing compound (chemical formula 4: oxidized dimer) according to one embodiment of the invention was administered to human vessel endothelial cells (human umbilical cord vein HUV-EC-C, Health Science Research Resources Bank (http://www.jhsf.or.jp)).
Specifically, human vessel endothelial cells (10,000 cells/ml) were cultured on a 48-well plate using an MCDB131 medium (manufactured by Invitrogen) containing 10% fetal bovine serum. […] The passage number was set to 5 or less in order to maintain the properties of the human vessel endothelial cells.
The mitochondrial respiratory chain activity was determined using an MTT assay kit (manufactured by Nacalai Tesque, Inc.). Specifically, after culturing the human vessel endothelial cells, an MTT solution was added to the culture solution in an amount 1/10th of that of the culture solution, and the cells were cultured at 37° C. for 3 hours under 5% carbon dioxide. An equal amount of isopropanol was then added to the culture solution to extract a formazan dye, and the absorbance at 595 nm was determined.

[2] = DPPH radical-scavenging ability (RS50); type: biochemical; conditions: for EC50: concentration at which DPPH radical-scavenging rate was 50%, room temperature 30 minutes, absorbance 595 nm
Experimental: In order to evaluate the chemical antioxidant ability of the selenium-containing compound (chemical formula 4: oxidized dimer) according to one embodiment of the invention, the 1,1-diphenyl-2-picrylhydrazyl (DPPH) radical-scavenging ability was measured (Hideo Kimura, Kota Naganuma, Masato Kojima, Masakazu Komatsu, Takumi Onda, and Masao Tsuji, Yamanashi Prefectural Industrial Technology Center Report, No. 22, pp. 59-63 (2008)).
Specifically, a selenium-containing compound (selenium content: 1.62 μM) derived from the meat of Xiphias gladius, a 10 mM aqueous solution of a water-soluble vitamin E derivative (commercially available antioxidant) (Trolox (registered trademark) (CAS No.: 56305-04-5, manufactured by Roche)), and a 4.36 mM aqueous solution of (+)-ergothioneine (CAS No.: 497-30-3, manufactured by SIGMA) were repeatedly 2-fold diluted with purified water to prepare 2 to 128-fold diluted test solutions.
10 μl of the test solution and 100 μl of a DPPH solution (0.35 mM, prepared by dissolving 1.38 mg of DPPH in 5 ml of ethanol, and adding 5 ml of a 0.1 M phosphate buffer (pH: 6.8) to the solution) were mixed on a 96-well micro test plate (BD Falcon (registered trademark), #1722, manufactured by Becton, and Dickinson and Company), and reacted at room temperature for 30 minutes in a dark place. The absorbance at 595 nm was then measured. A case of using purified water (absorbance: 0.59) as the test solution was determined that the DPPH radical-scavenging rate was 0%, and a case of using 10 mM Trolox (registered trademark) (absorbance: 0.19) as the test solution was determined that the DPPH radical-scavenging rate was 100%. The concentration at which the DPPH radical-scavenging rate was 50% was determined to be the RS50 of each substance, and taken as the antioxidant ability.

[3] = system: heme protein (myoglobin, hemoglobin); experiment: Heme iron binding effect (Se/Fe determination in heme proteins); set-up: species or system Thunnus orientalis, rabbit, Physeter macrocephalus; conditions: Se/Fe molar ratio of purified myoglobin and hemoglobin 0.003, 0.0003, 0.001
Experimental: Since it was confirmed that the selenium-containing compound has a heme protein auto-oxidation inhibitory effect (see “5. Metmyoglobin formation inhibitory effect of selenium-containing compound”), the binding capability of the selenium-containing compound with heme proteins was determined. Physeter macrocephalus (sperm whale) myoglobin available from SIGMA was used. 100 g of the dark muscle of Thunnus orientalis was mixed with a 5-fold amount of cold water, ground using a POLYTRON™ homogenizer, and centrifuged (6000×g, 10 min). The supernatant liquid was collected, and passed through a Sephacryl-100 column (16 mm×60 cm, manufactured by Pharmacia) that was equilibrated with a 0.05 M Tris-HCl buffer (pH: 7) containing 0.1 M salt to purify myoglobin derived from the dark muscle of Thunnus orientalis. […]
The selenium content in the Physeter macrocephalus myoglobin, the Thunnus orientalis myoglobin, the rabbit hemoglobin, and the Thunnus orientalis hemoglobin was measured. Selenium was detected from each sample. The elements contained in the Physeter macrocephalus myoglobin were measured by HPLC-ICP-MS.
The sample was wet-decomposed using nitric acid and hydrogen peroxide. Iron was quantitatively determined using an inductively coupled plasma atomic emission spectrometer (ICP-AES) (“ICPE-9000” manufactured by Shimadzu Corporation), and selenium was quantitatively determined by fluorometry. […]

[4] = Solubility (physico-chemical properties); type: physicochemical; conditions: solvents as named in the value
[5] = system: animal cells (ZE, YT, RTG-2, HUV-EC-C, AT2KY, TIG-S3, HEK293 cells); experiment: Cell proliferation-promoting effect on cultured cells (cell count by trypan blue staining); type: cell-based; conditions: 0-100 nM, 0-5 days, fish and human cell lines
Experimental: Specifically, Danio rerio embryo ZE cells (National Research Institute of Fisheries Science), Seriola quinqueradiata tail fin YT cells (National Research Institute of Fisheries Science), and Oncorhynchus mykiss gonad RTG-2 cells (ATCCCCL55) were cultured in an L-15 medium containing 2% fetal bovine serum (30,000 cells/ml).
Human vessel endothelial cells (human umbilical cord vein HUV-EC-C, Health Science Research Resources Bank (http://www.jhsf.or.jp)) were cultured in an MCDB131 medium containing 10% fetal bovine serum (10,000 cells/ml).
(§1) AT cells derived from the skin of a human patient with ataxia telangiectasia syndrome (AT2KY, Health Science Research Resources Bank, JCRB0316), human skin TIG-S3 cells (Health Science Research Resources Bank, JCRB0544), and human kidney HEK293 cells (Health Science Research Resources Bank, JCRB9068) were cultured in a DMEM medium containing 10% fetal bovine serum (15,000 cells/ml).
The selenium-containing compound was added to each culture medium (containing 2% serum) so that the final concentration was 0, 5, 10, 25, 50, or 100 nM. […] The cell count was determined by trypan blue staining after culturing the cells for 0, 1, 2, 3, 4, and 5 days.

[6] = system: human vessel endothelial cells; experiment: Cell proliferation rate (MTT) under hydrogen peroxide oxidative stress; type: cell-based; conditions: 5 mM, 1 hour pre-culture, then hydrogen peroxide 25 or 50 μM, 24 hours
Experimental: The in vivo antioxidant effect of the selenium-containing compound (chemical formula 4: oxidized dimer) according to one embodiment of the invention was determined using human vessel endothelial cells. Specifically, human vessel endothelial cells (10,000 cells/ml) were cultured on a 48-well plate using an MCDB131 medium containing 10% fetal bovine serum. The selenium-containing compound was added to the culture solution so that the final concentration was 5 mM (control: the selenium-containing compound was not added), and the cells were cultured at 37° C. for 1 hour under 5% carbon dioxide. After the addition of hydrogen peroxide to a final concentration of 25 or 50 μM, the cells were cultured at 37° C. for 24 hours under 5% carbon dioxide. The cell proliferation rate was then determined by the MTT assay. […] Specifically, it was confirmed that the selenium-containing compound (chemical formula 4: oxidized dimer) according to one embodiment of the invention has an in vivo antioxidant effect.

[7] = system: hemoglobin of rabbit red cells; experiment: Metmyoglobin formation inhibitory effect (hemoglobin collected from red cells); type: cell-based; conditions: 10, 25 or 50 nM in medium; hemoglobin solution incubated 37° C. 3 hours; versus control
Experimental: (§2) Preserved rabbit blood (Nippon Biotest Laboratories Inc.) was washed three times with a physiological saline solution (centrifuged at 2000 rpm and 4° C. for 5 min) to collect red cells. The red cells were suspended in a 4-fold amount of an RPMI medium (GIBCO (registered trademark) RPMI Medium 1640 manufactured by Invitrogen Co.), and cultured at 37° C. for 1 day using a carbon dioxide incubator. The selenium-containing compound was added to the culture solution so that the final concentration of the selenium-containing compound in the medium was 10, 25, or 50 nM (control: the selenium-containing compound was not added), and the cells were cultured. The red cells were then collected by centrifugation (2000×g, 4° C., 5 min), washed three times with a phosphate buffered saline (PBS), and collected by centrifugation. The red cells were hemolyzed by adding a 10 mM sodium phosphate buffer (pH: 7.2) to the red cell pellets, and centrifuged (15,000×g, 4° C., 10 min). The supernatant hemoglobin solution was then collected. The hemoglobin solution was diluted with a 100-fold amount of a 50 mM sodium phosphate buffer (pH: 6.8), and incubated at 37° C. for 3 hours. The absorbance ratio at 405 nm and 430 nm before and after incubation was measured, and the rate of metmyoglobin formation of the hemoglobin was calculated.

[8] = system: AT cells derived from the skin of a human patient with ataxia telangiectasia syndrome (AT2KY); experiment: Cell proliferation-promoting effect on AT cells (cell count by trypan blue staining); type: cell-based; conditions: 0-100 nM, 37° C., 0-5 days
Experimental: as §1
The selenium-containing compound was added to each culture medium (containing 2% serum) so that the final concentration was 0, 5, 10, 25, 50, or 100 nM. The Danio rerio embryo ZE cells were cultured at 25° C., the Seriola quinqueradiata tail fin YT cells were cultured at 20° C., and Oncorhynchus mykiss gonad RTG-2 cells were cultured at 15° C., and the human vessel endothelial cells, the AT cells derived from the skin of a human patient with ataxia telangiectasia syndrome, the human skin TIG-S3 cells, and the human kidney HEK293 cells were cultured at 37° C. The cell count was determined by trypan blue staining after culturing the cells for 0, 1, 2, 3, 4, and 5 days. […]

rabbit red cells = experiment: Active oxygen level in red cells (hydroxyphenyl fluorescein); type: cell-based; conditions: HPF fluorescence; versus control
Experimental: as §2, with “The red cells were hemolyzed by adding a 10 mM sodium phosphate buffer (pH: 7.2) to the red cell pellets, and centrifuged (15,000×g, 4° C., 10 min). The supernatant hemoglobin solution was then collected. The hemoglobin solution was diluted with a 100-fold amount of a 50 mM sodium phosphate buffer (pH: 6.8), and incubated at 37° C. for 3 hours.” left out
The active oxygen level in the red cells was also measured using hydroxyphenyl fluorescein (HPF) (manufactured by Sekisui Medical Co., Ltd.). […] The fluorescence intensity (excitation wavelength: 490 nm, fluorescence wavelength: 515 nm) due to the reaction product with active oxygen was measured, and used as an index of the active oxygen level.

O=[Se](O)O [sodium selenite]
effect on cell proliferation (MTT) ([1]; 5 nM added to culture medium): cell death occurred

N[C@@H](C[Se][Se]C[C@H](N)C(=O)O)C(=O)O [selenocystine]
effect on cell proliferation (MTT) ([1]; 5 nM added to culture medium): cell death occurred

C[N+](C)(C)C(Cc1cnc([Se][Se]c2ncc(CC(C(=O)[O-])[N+](C)(C)C)[nH]2)[nH]1)C(=O)[O-] (stereo not shown) [chemical formula 4, 3,3′-(2,2′-diselanediylbis(1H-imidazole-5,2-diyl))bis(2-(trimethylammonio)propanoate)]
concentration giving radical-scavenging ability equal to L-(+)-ergothioneine, as fraction of ergothioneine concentration ([2]; DPPH, relative to L-(+)-ergothioneine): 1/907
concentration giving radical-scavenging ability equal to Trolox, as fraction of Trolox concentration ([2]; DPPH, relative to water-soluble vitamin E derivative (Trolox)): 1/456
radical-scavenging ability higher than Trolox by a factor ([2]; chemical test, relative to Trolox): about 500
EC50 [2]: 1.9 µM
binding to heme protein [3]: bound to a heme protein
Solubility ([4]; in acetone and acetonitrile): scarcely soluble in acetone and acetonitrile
Solubility ([4]; in water, ethanol and methanol): Soluble in water, ethanol, and methanol;
cell proliferation (cell count) [5]: significantly promotes proliferation of animal cells
effect on cell proliferation (MTT) ([1]; 5 mM, 24 hours, 37° C.): cell proliferation-promoting effect
cytotoxicity compared with known selenium-containing compounds ([1]; versus selenious acid, selenocystine, selenomethionine): very low cytotoxicity
cellular proliferative potential under oxidative stress [6]: improved
rate of metmyoglobin formation of hemoglobin [7]: lower than that of the control
proliferation of AT cells [8]: effect of promoting proliferation of the AT cells
active oxygen level in the red cells (rabbit red cells): lower than that of the control

C[Se]CC[C@H](N)C(=O)O [selenomethionine]
effect on cell proliferation (MTT) ([1]; 5 nM added to culture medium): cell death occurred

C[N+](C)(C)[C@@H](Cc1c[nH]c(=S)[nH]1)C(=O)[O-] [L-(+)-ergothioneine, reference compound]
EC50 [2]: 1700 µM

Cc1c(C)c2c(c(C)c1O)CCC(C)(C(=O)O)O2 (stereo not shown) [Trolox, 6-hydroxy-2,5,7,8-tetrametylchroman-2-carboxylic acid, reference compound]
EC50 [2]: 880 µM

Reference: patent publication US9753018B2, “Selenium-containing compound” (Fisheries Research Agency, priority 2009, dated 2017)
